Assay results from ChEMBL document CHEMBL5724696, “Autophagy assay results for EUbOPEN Chemogenomics Library” (2024).

Tests used:
Type in all cases: functional, Homo sapiens
U2OS [1] = assay: (§1) Here: values are normalized to the negative (DMSO; defined as 0% autophagy induction) and positive (250nM Torin1; mTOR inhibitor; defined as maximal inducer of autophagy = 100%) control compounds and represented as % of autophagy induction. […] The impact of autophagy induction on cells is complex and depends on the affected target. As such, the magnitude of a phenotype may not be equally mirrored in the %-value of autophagy induction and vice versa. The dynamics of the induction may indicate the mode of activation: e.g. activation via phosphorylation or a signaling cascade may occur fast, while activation via transcription factors may take considerably longer. […] Of note, treatment concentrations may be sub-optimal for specific compounds, leading to false negative annotations.; conditions: Culturing Media DMEM, 1 % Penicillin/Streptomycin, 10% Fetal bovin serum Add-On: No, Screening Media Control DMEM, Screening Media Samples DMEM
U2OS [2] = assay: as §1; conditions: Culturing Media DMEM, 1 % Penicillin/Streptomycin, 10% Fetal bovin serum Add-On: No, Screening Media Control DMEM, Screening Media Samples DMEM; remark: listed apart in the source
TERT-RPE1 = assay: as §1; conditions: Culturing Media DMEM/F12 (1:1), 1 % Penicillin/Streptomycin, 10% Fetal bovin serum Add-On: No, Screening Media Control DMEM/F12 (1:1), Screening Media Samples DMEM/F12 (1:1)
[3] = Compound Concentration 0.5 uM, Timepoint 12 hours
[4] = Compound Concentration 0.5 uM, Timepoint 24 hours
[5] = Compound Concentration 0.5 uM, Timepoint 36 hours
[6] = Compound Concentration 0.5 uM, Timepoint 60 hours
[7] = Compound Concentration 2 uM, Timepoint 12 hours
[8] = Compound Concentration 2 uM, Timepoint 24 hours
[9] = Compound Concentration 2 uM, Timepoint 36 hours
[10] = Compound Concentration 2 uM, Timepoint 60 hours
[11] = Compound Concentration 10 uM, Timepoint 12 hours
[12] = Compound Concentration 10 uM, Timepoint 24 hours
[13] = Compound Concentration 10 uM, Timepoint 36 hours
[14] = Compound Concentration 10 uM, Timepoint 60 hours

Row | Compound | autophagy induction (U2OS [1]; [3]) | autophagy induction (U2OS [1]; [4]) | autophagy induction (U2OS [1]; [5]) | autophagy induction (U2OS [1]; [6]) | autophagy induction (U2OS [1]; [7]) | autophagy induction (U2OS [1]; [8]) | autophagy induction (U2OS [1]; [9]) | autophagy induction (U2OS [1]; [10]) | autophagy induction (U2OS [1]; [11]) | autophagy induction (U2OS [1]; [12]) | autophagy induction (U2OS [1]; [13]) | autophagy induction (U2OS [1]; [14]) | autophagy induction (U2OS [2]; [3]) | autophagy induction (U2OS [2]; [4]) | autophagy induction (U2OS [2]; [5]) | autophagy induction (U2OS [2]; [6]) | autophagy induction (U2OS [2]; [7]) | autophagy induction (U2OS [2]; [8]) | autophagy induction (U2OS [2]; [9]) | autophagy induction (U2OS [2]; [10]) | other results
1 | CN(C(=O)Cc1ccc(Cl)c(Cl)c1)C(CN1CCCC1)c1cccc(OCC(=O)O)c1.Cl (stereo not drawn) | 2.144% | -2.707% | 1.07% | 1.175% | -9.959% | -4.957% | -10.0899% | -9.274% | -7.228% | -6.505% | 0.1565% | 0.07233% | -12.8922% | -7.849% | -3.698% | -1.542% | -9.267% | -3.553% | -1.479% | -2.0456% | autophagy induction (U2OS [2]; [11]): -0.2023%; autophagy induction (U2OS [2]; [12]): 1.762%; autophagy induction (U2OS [2]; [13]): 0.1182%; autophagy induction (U2OS [2]; [14]): 0.3636%; autophagy induction (TERT-RPE1; [3]): -10.9051%; autophagy induction (TERT-RPE1; [4]): -12.2301%; autophagy induction (TERT-RPE1; [5]): -15.6398%; autophagy induction (TERT-RPE1; [6]): -20.341%; autophagy induction (TERT-RPE1; [7]): -5.691%; autophagy induction (TERT-RPE1; [8]): -6.772%; autophagy induction (TERT-RPE1; [9]): -9.058%; autophagy induction (TERT-RPE1; [10]): -11.2679%; autophagy induction (TERT-RPE1; [11]): -5.196%; autophagy induction (TERT-RPE1; [12]): -4.57%; autophagy induction (TERT-RPE1; [13]): -3.728%; autophagy induction (TERT-RPE1; [14]): -2.992%
2 | N#Cc1cccc(C(=O)Nc2cc(-c3ccccc3)nn2-c2ccccc2)c1 | 0.2338% | 1.876% | 9.199% | 8.756% | -6.937% | -1.593% | 2.3802% | -5.115% | 0.7229% | 5.625% | -1.742% | -2.793% | -5.641% | -2.328% | -2.122% | -3.431% | 0.2801% | -3.069% | -2.148% | -2.332% | autophagy induction (U2OS [2]; [11]): -0.7756%; autophagy induction (U2OS [2]; [12]): -1.607%; autophagy induction (U2OS [2]; [13]): -0.5457%; autophagy induction (U2OS [2]; [14]): -0.9476%; autophagy induction (TERT-RPE1; [3]): -7.699%; autophagy induction (TERT-RPE1; [4]): -6.069%; autophagy induction (TERT-RPE1; [5]): 3.327%; autophagy induction (TERT-RPE1; [6]): 19.4837%; autophagy induction (TERT-RPE1; [7]): -8.111%; autophagy induction (TERT-RPE1; [8]): -9.075%; autophagy induction (TERT-RPE1; [9]): -9.172%; autophagy induction (TERT-RPE1; [10]): -3.858%; autophagy induction (TERT-RPE1; [11]): -3.603%; autophagy induction (TERT-RPE1; [12]): -4.896%; autophagy induction (TERT-RPE1; [13]): -4.571%; autophagy induction (TERT-RPE1; [14]): -1.999%
3 | Cc1cn2cc(CC(=O)N3CCC4(CC3)CN(Cc3ccc(-n5nccn5)cc3Cl)C4)nc2s1 | -19.4257% | -11.2688% | -14.8033% | -9.0407% | 2.217% | 1.46% | 0.9512% | 5.325% | -2.971% | 3.988% | 2.68% | 3.422% | 1.123% | -3.762% | -1.928% | -1.19% | -4.678% | -1.951% | -1.585% | -1.336% | autophagy induction (U2OS [2]; [11]): -3.342%; autophagy induction (U2OS [2]; [12]): -3.411%; autophagy induction (U2OS [2]; [13]): -3.208%; autophagy induction (U2OS [2]; [14]): -4.891%; autophagy induction (TERT-RPE1; [3]): -2.947%; autophagy induction (TERT-RPE1; [4]): -6.082%; autophagy induction (TERT-RPE1; [5]): -10.2542%; autophagy induction (TERT-RPE1; [6]): -15.5621%; autophagy induction (TERT-RPE1; [7]): -4.023%; autophagy induction (TERT-RPE1; [8]): -6.112%; autophagy induction (TERT-RPE1; [9]): -7.965%; autophagy induction (TERT-RPE1; [10]): -11.2776%; autophagy induction (TERT-RPE1; [11]): 6.864%; autophagy induction (TERT-RPE1; [12]): 5.224%; autophagy induction (TERT-RPE1; [13]): 5.8937%; autophagy induction (TERT-RPE1; [14]): 9.679%
